From ChEMBL document CHEMBL4396863, “Amyloid-Binding Alcohol Dehydrogenase (ABAD) Inhibitors for the Treatment of Alzheimer's Disease” (J Med Chem, 2019)

How the values were obtained:
[1] = Inhibition of ABAD (unknown origin); set-up: species or system Homo sapiens
HEK293 [2] = test: Displacement of radiolabeled estradiol ABAD (unknown origin) transfected in HEK293 cells at 100 uM relative to control; format: cell-based; conditions: Homo sapiens
HEK293 [3] = test: Displacement of radiolabeled estradiol ABAD (unknown origin) transfected in HEK293 cells at 300 uM relative to control; format: cell-based; conditions: Homo sapiens
[4] = Displacement of radiolabeled estradiol ABAD (unknown origin) transfected in HEK293 cells; format: cell-based, Homo sapiens
[5] = Drug uptake in C57BL/6 mouse brain at 10 mg/kg by LC-MS/MS analysis; format: ADME, organism-based; conditions: in vivo
[6] = Cmax in C57BL/6 mouse at 10 mg/kg by LC-MS/MS analysis; format: ADME, organism-based; set-up: dose 10 mg/kg; conditions: in vivo

Compound | IC50 [1] | other results
O=C(C(c1ccccc1)n1cnc2[nH]ncc2c1=S)N1CCC(O)(c2ccccc2)CC1 (stereo unspecified) | 81 nM | 
CCN(CC)C(=O)C(c1ccccc1)n1cnc2[nH]ncc2c1=S (stereo unspecified) | 93 nM | 
O=C(C(c1ccccc1)n1cnc2[nH]ncc2c1=S)N1CCCCCCC1 (stereo unspecified) | 96 nM | 
O=C([C@H](c1ccccc1)n1cnc2[nH]ncc2c1=S)N1CCCCCC1 | 92 nM | 
O=C(C(c1ccccc1)n1cnc2[nH]ncc2c1=S)N1CCC(O)(c2ccc(Br)cc2)CC1 (stereo unspecified) | 82 nM | 
O=C(Nc1ccc(O)c(Cl)c1)Nc1nc2ccc(Cl)cc2s1 | 1670 nM | 
COc1cccc(CN2CCN(C[C@@]3(O)CC[C@@]4(C)[C@@H](CC[C@@H]5[C@@H]4CC[C@]4(C)C(=O)CC[C@@H]54)C3)CC2)c1 |  | inhibition (HEK293 [2]): 4.7%; inhibition (HEK293 [3]): 30%; IC50 [4]: 550 nM
O=C(Nc1ccc(O)c(Cl)c1)Nc1nc2ccc(F)cc2s1 | 1890 nM | 
O=C(C(c1cccc(O)c1)n1cnc2[nH]ncc2c1=S)N1CCCCCC1 (stereo unspecified) | 51 nM | 
COc1ccc2nc(N[C@@H](c3ccc(O)cc3)P(=O)(OC)OC)sc2c1 | 52700 nM | Drug uptake [5]: 4 to 50 ng/mL; Cmax [6]: 4.8 ng/mL
COc1ccc(NC(=N)Nc2nc3ccc(OC)cc3s2)cc1 | 3060 nM | 
CCCCC1(O)CCN(C(=O)C(c2ccccc2)n2cnc3[nH]ncc3c2=S)CC1 (stereo unspecified) | 71 nM | 
